Experiments:
C. elegans iPGM = biological target: T1, C. elegans iPGM (Caenorhabditis elegans, UniProt G5EFZ1); assay: PGM activity, spectrophotometric NADH-coupled assay, recombinant C. elegans iPGM; format: biochemical; conditions: recombinant enzyme
T1 construct: The full-length iPGMs from C. elegans, B. malayi and Wolbachia were overexpressed in E. coli; His tag (C); made in house; host or cells: E. coli ER2566
T1 sequence (G5EFZ1 1-521 isoform G5EFZ1-2): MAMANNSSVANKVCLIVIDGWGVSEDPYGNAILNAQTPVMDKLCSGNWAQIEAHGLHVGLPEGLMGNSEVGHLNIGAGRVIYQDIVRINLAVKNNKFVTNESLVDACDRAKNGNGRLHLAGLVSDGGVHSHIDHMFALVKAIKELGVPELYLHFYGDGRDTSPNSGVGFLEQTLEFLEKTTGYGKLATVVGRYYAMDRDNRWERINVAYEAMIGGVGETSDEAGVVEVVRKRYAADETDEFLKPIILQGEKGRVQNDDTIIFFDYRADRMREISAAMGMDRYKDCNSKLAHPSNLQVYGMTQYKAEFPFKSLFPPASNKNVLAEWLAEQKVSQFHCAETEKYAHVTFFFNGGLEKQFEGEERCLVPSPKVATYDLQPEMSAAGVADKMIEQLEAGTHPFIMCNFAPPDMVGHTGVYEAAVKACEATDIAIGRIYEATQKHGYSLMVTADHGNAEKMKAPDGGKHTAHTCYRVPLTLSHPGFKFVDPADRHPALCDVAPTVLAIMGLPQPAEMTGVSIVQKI
Experimental: (§1) The purified CeiPGM, WoliPGM and BmiPGM proteins described in Example 4 were assayed for PGM activity and found to be active. Activity was measured in forward and reverse directions using a standard spectrophotometric assay (White and Fothergill-Gilmore, European J. Biochem. 207:709-714 1992)) as outlined in FIG. 9. In the forward reaction (glycolytic), the conversion of 3-PG to 2-PG is measured, whereas in the reverse direction (gluconeogenic), the conversion of 2-PG to 3-PG is assayed. In both cases, PGM activity was determined indirectly by measuring the consumption of NADH, which is monitored at 340 nm. The amount of NADH being oxidized to NAD corresponds to the amount of enzyme product (2-PG in the forward direction or 3-PG in the reverse direction) yielded in the PGM reaction. Reactions were performed at 30° C. for 5 minutes with data collected at 10-second intervals using a Beckman DU 640 spectrophotometer. In the forward reaction, iPGM was added to 1 ml assay buffer (30 mM Tris-HCl pH 7.0, 5 mM MgSO4, 20 mM KCl, 0.15 mM NADH) containing 1 mM ADP, 10 mM 3-PGA (Sigma P8877, Sigma-Aldrich, St. Louis, Mo.), 2.5 U each of enolase (Sigma E6126, EC 4.2.1.11, Sigma-Aldrich, St. Louis, Mo.), pyruvate kinase (Sigma P7768, EC 2.7.1.40, Sigma-Aldrich, St. Louis, Mo.) and lactate dehydrogenase (Sigma L2518; EC 1.1.1.27, Sigma-Aldrich, St. Louis, Mo.). […]

iPGM = conditions: cited from earlier work
dPGM = conditions: cited from earlier work
B. malayi iPGM = biological target: T2, B. malayi iPGM (Brugia malayi, UniProt Q4VWF8); assay: PGM activity, spectrophotometric NADH-coupled assay, recombinant B. malayi iPGM; format: biochemical; conditions: recombinant enzyme
T2 construct: The full-length iPGMs from C. elegans, B. malayi and Wolbachia were overexpressed in E. coli; His tag (C); made in house; host or cells: E. coli ER2566
T2 sequence (Q4VWF8 whole entry): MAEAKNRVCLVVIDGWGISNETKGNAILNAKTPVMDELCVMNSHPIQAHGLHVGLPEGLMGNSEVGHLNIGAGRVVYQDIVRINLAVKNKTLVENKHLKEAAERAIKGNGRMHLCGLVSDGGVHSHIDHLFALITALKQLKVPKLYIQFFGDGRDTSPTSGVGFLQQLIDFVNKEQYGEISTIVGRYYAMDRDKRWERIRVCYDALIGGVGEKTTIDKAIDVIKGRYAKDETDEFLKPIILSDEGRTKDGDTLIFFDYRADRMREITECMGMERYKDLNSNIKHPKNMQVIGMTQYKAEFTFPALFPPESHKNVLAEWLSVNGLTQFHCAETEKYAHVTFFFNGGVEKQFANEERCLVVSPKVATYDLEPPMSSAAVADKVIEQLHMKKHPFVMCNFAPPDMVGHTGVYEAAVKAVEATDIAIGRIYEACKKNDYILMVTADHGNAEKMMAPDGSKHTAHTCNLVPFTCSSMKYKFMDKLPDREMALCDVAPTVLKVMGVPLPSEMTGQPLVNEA
Experimental: as §1

Wolbachia iPGM = assay: PGM activity, spectrophotometric NADH-coupled assay, recombinant Wolbachia iPGM; format: biochemical; conditions: recombinant enzyme
Experimental: as §1

In the case of `[O]=[V]([O-])([O-])[O-]` [vanadate], the “inhibition of PGM activity” value (C. elegans iPGM) is given as “not inhibited”, the “effect on iPGM activity” value (iPGM) is given as “insensitive” and the “effect on dPGM activity” value (dPGM) is given as “inhibited”. The “inhibition of PGM activity” value (B. malayi iPGM) was “not inhibited” and the “inhibition of PGM activity” value (Wolbachia iPGM) was “not inhibited”.
